Assay results as given in PMC7911889 (Viruses, 2021).

Biological target: SARS-CoV-2 3CL^pro (Severe acute respiratory syndrome coronavirus 2, UniProt P0DTD1)
Assay type: cell-based

Q: GRL-0496 was tested. Which “Effect on luciferase reporter activity / 3CL^pro inhibition (in words)” value did it give?
A: Its value is “clearly inhibited SARS-CoV-2 3CL^pro”.
